One compound from US20240336563A1, “G-ALPHA-S INHIBITORS AND USES THEREOF” (The Regents of the University of California, priority 2021, published 2024) can be followed below.

Structures are written as SMILES. Entries after “also recorded” stand apart in the source; their conditions may differ.

One experiment addresses Gαs(R201C) (Homo sapiens, UniProt P63092, R201C). The experiment can be described thus: Cysteine modification by acrylamidine. Type of experiment: binding. The settings on record: R201C mutant. The text has this: (§1) The R201C mutation results in the loss of ammonium η1 and η2 of R201 thus freeing E50 to interact with R258 and R265 to indirectly stabilize switch II in an active-like conformation. Based on this finding, replacing the side chain of R201C with a close mimic of native arginine which contains N(η1) and N(η2) may correct the misactivation of the R201C mutant. […] This modification converts cysteine to an arginine mimic (FIG. 3A).

The target in experiment [1] is T1, Gαs(R201C/C237S) (Homo sapiens, UniProt P63092, C237S/R201C). The experiment can be described thus: Cysteine modification by acrylamidine. The class given is binding. The settings on record: R201C/C237S double mutant.
T1 sequence (P63092 7-380 isoform P63092-2 R187C/C223S limits assumed): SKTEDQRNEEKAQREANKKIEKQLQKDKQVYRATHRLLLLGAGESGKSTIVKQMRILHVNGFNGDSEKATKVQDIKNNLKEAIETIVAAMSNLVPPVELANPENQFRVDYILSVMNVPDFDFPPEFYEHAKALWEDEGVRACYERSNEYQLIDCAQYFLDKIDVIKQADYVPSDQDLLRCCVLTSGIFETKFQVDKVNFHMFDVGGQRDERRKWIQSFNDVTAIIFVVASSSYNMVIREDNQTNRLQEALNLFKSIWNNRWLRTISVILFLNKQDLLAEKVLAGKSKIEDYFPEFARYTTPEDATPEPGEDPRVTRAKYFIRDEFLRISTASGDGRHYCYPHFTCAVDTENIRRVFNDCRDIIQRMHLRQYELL
Description: as §1

Experiment [2] deals with GDP-bound Gαs(R201C/C237S) (Homo sapiens, UniProt P63092, C237S/R201C). The experiment is described as follows: Adenylyl cyclase-activating activity of Acr-modified Gαs. The settings on record: in the presence of GDP and Gβ1/Gγ2(C68S), free Acr removed by gel filtration. The class given is biochemical. The procedure:
(§2) FIGS. 3A-3C show modification of C201 by acrylamide. […] The data represents the mean SE of three independent measurements. […] The data represents the mean±SD of at least three independent measurements.
(§3) Also effect of modifying C201 with Acr on the adenylyl cyclase-activating activity of GDP-bound Gαs(R201C/C237S) was calculated. […] The kcat of Gαs(C237S) is 1.539±0.153 min^−1 (measured at 0° C.), slightly higher than that of WT Gαs (FIG. 3C). […] Following Acr modification of the R201C/C237S mutant its kcat increased to 0.471±0.043 min^−1 (measured at 0° C.), about 30% of that of Gαs(C237S).
On the technique in general: In gel filtration, larger molecules generally elute earlier.

Experiment [3] deals with T1, Gαs(R201C/C237S). The experiment is described as follows: Single turnover GTPase activity of Acr-modified Gαs. The class given is biochemical. The procedure:
as §2, §3

GDP-bound Gαs(R201C/C237S), sequence (P63092 7-380 isoform P63092-2 R187C/C223S limits assumed): as above
Gαs(R201C), sequence (P63092 7-380 isoform P63092-2 R187C limits assumed): as the sequence (P63092 7-380 isoform P63092-2 R187C/C223S limits assumed) above, with S217C counted along it

Turning to `C=CC(=N)N` [Acr, acrylamidine], on Gαs(R201C), the “cysteines modified by Acr” value is “can modify Cys237 and Cys201”. Also, the “cysteines modified by Acr” value at Gαs(R201C/C237S) [1] is given as “only Cys201 can be modified”. For the same compound, in experiment [2], the “ability of Acr-modified Gαs(R201C/C237S) to activate adenylyl cyclase” value is given as “lowered to the same level as that of Gαs(C237S); also recorded: decreased”. In addition, the “single turnover GTPase activity of the R201C/C237S mutant after modification of C201 by Acr” value at Gαs(R201C/C237S) [3] (FIG. 3C legend) is recorded as “increased the single turnover GTPase activity of the R201C/C237S mutant to a level close to that of the C237S mutant”. On Gαs(R201C/C237S) [3] (measured at 0° C.), the “kcat after Acr modification relative to that of Gαs(C237S)” value was “about 30%” and the “kcat of R201C/C237S mutant following Acr modification” value amounted to 0.00785 ± 0.000717 s⁻¹.
